From ChEMBL document CHEMBL4017541, “Membrane-Active Hydantoin Derivatives as Antibiotic Agents” (J Med Chem, 2017)
In brackets after ≈: the same amount, converted by molar mass. Activity calls are given as the source filed them. The calls are words filed in the database; no cut-off is given here.

What was measured:
Staphylococcus aureus [1] = assay: Antimicrobial activity against methicillin resistant Staphylococcus aureus ATCC 33591 after 16 hrs; type: functional; conditions: ATCC 33591, 16 h
Pseudomonas aeruginosa = assay: Antimicrobial activity against Pseudomonas aeruginosa ATCC 27853 after 16 hrs; type: functional; conditions: ATCC 27853, 16 h
Klebsiella pneumoniae = assay: Antimicrobial activity against Klebsiella pneumoniae ATCC 13383 after 16 hrs; type: functional; conditions: ATCC 13383, 16 h
Escherichia coli = assay: Antimicrobial activity against Escherichia coli ATCC 25922 after 16 hrs; type: functional; conditions: ATCC 25922, 16 h
Enterococcus faecalis = assay: Antimicrobial activity against vancomycin resistant Enterococcus faecalis ATCC 700802 after 16 hrs; type: functional; conditions: ATCC 700802, 16 h
[2] = tested on: Staphylococcus epidermidis; assay: Antimicrobial activity against methicillin resistant Staphylococcus epidermidis RP62A after 16 hrs; type: functional
[3] = Selectivity index, ratio of HC50 for mouse RBC to MIC for methicillin resistance Staphylococcus aureus ATCC 33591
[4] = Retention time of compound by HPLC analysis
Staphylococcus aureus [5] = assay: Antibacterial activity against methicillin resistant Staphylococcus aureus ATCC 33591 infected in Wistar rat assessed as reduction in lung inflammation at 10 mg/kg, iv treated 24 hrs post infection measured after 5 days by hematoxylin/ eosin staining based microscopic analysis; type: functional, organism-based
Staphylococcus aureus [6] = assay: Antibacterial activity against methicillin resistance Staphylococcus aureus ATCC 33591 infected in Wistar rat assessed as reduction in bacterial load in bronchoalveolar lavage of lungs at 10 mg/kg, iv treated 24 hrs post infection measured after 3 days relative to control; type: functional; design: scale not given: the % may be the effect or the level left
Staphylococcus aureus [7] = assay: Antibacterial activity against methicillin resistant Staphylococcus aureus ATCC 33591 infected in Wistar rat assessed as reduction in lung inflammation at 10 mg/kg, iv treated 24 hrs post infection measured after 3 days by hematoxylin/ eosin staining based microscopic analysis; type: functional, organism-based
Staphylococcus aureus [8] = assay: Antibacterial activity against methicillin resistance Staphylococcus aureus ATCC 33591 infected in Wistar rat assessed as reduction in bacterial load in bronchoalveolar lavage of lungs at 10 mg/kg, iv treated 24 hrs post infection measured after 5 days relative to control; type: functional; design: scale not given: the % may be the effect or the level left

Structure (SMILES) | MIC (Staphylococcus aureus [1]) | MIC (Pseudomonas aeruginosa) | MIC (Klebsiella pneumoniae) | MIC (Escherichia coli) | MIC (Enterococcus faecalis) | MIC [2] | Selectivity Index [3] | Retention time [4] | Activity (Staphylococcus aureus [5]) | Activity (Staphylococcus aureus [6]) | Activity (Staphylococcus aureus [7]) | Activity (Staphylococcus aureus [8])
CCCCCCCCCCCCCCCC(=O)N[C@@H](CCCCN)CN1CC(=O)N(c2cccc(Cl)c2)C1=O | 12.5 µg/mL (≈ 22.2 µM) | > 50 µg/mL | > 50 µg/mL | > 50 µg/mL | 12.5 µg/mL (≈ 22.2 µM) | 12.5 µg/mL (≈ 22.2 µM) |  |  |  |  |  | 
CCCCCCCCCCCCCCCC(=O)N[C@@H](CCCCN)CN1CC(=O)N(c2ccc(OC)cc2)C1=O | 3.12 µg/mL (≈ 5.58 µM) | > 50 µg/mL | > 50 µg/mL | > 50 µg/mL | 6.25 µg/mL (≈ 11.2 µM) | 6.25 µg/mL (≈ 11.2 µM) |  |  |  |  |  | 
CCCCCCCCCCCC(=O)N[C@@H](CCCCN)CN1CC(=O)N(C23CC4CC(CC(C4)C2)C3)C1=O | 6.25 µg/mL (≈ 11.8 µM) | > 50 µg/mL | > 50 µg/mL | 12.5 µg/mL (≈ 23.5 µM) | 6.25 µg/mL (≈ 11.8 µM) | 6.25 µg/mL (≈ 11.8 µM) |  |  |  |  |  | 
CCCCCCCCCCCCCCCC(=O)N[C@@H](CCCCN)CN1CC(=O)N(C2CCCCC2)C1=O | 3.12 µg/mL (≈ 5.83 µM) | > 50 µg/mL | > 50 µg/mL | > 50 µg/mL | 25 µg/mL (≈ 46.7 µM) | 25 µg/mL (≈ 46.7 µM) |  |  |  |  |  | 
O=C1CN(/N=C/c2ccc([N+](=O)[O-])o2)C(=O)N1 [NITROFURANTOIN] | 12.5 µg/mL (≈ 52.5 µM) | > 50 µg/mL | 25 µg/mL (≈ 105 µM) | 6.25 µg/mL (≈ 26.2 µM) | 12.5 µg/mL (≈ 52.5 µM) | 6.25 µg/mL (≈ 26.2 µM) |  |  |  |  |  | 
CCCCCCCCCC(=O)N[C@@H](CCCCN)CN1CC(=O)N(c2cccc(Cl)c2)C1=O | 6.25 µg/mL (≈ 13 µM) | 6.25 µg/mL (≈ 13 µM) | 6.25 µg/mL (≈ 13 µM) | 6.25 µg/mL (≈ 13 µM) | 12.5 µg/mL (≈ 26.1 µM) | 6.25 µg/mL (≈ 13 µM) | 16 |  |  |  |  | 
CCCCCCCCCCCC(=O)N[C@@H](CCCCN)CN1CC(=O)N(CC)C1=O | > 50 µg/mL | > 50 µg/mL | > 50 µg/mL | 12.5 µg/mL (≈ 29.4 µM) | > 50 µg/mL | > 50 µg/mL |  | < 26 min |  |  |  | 
CCCCCCCCCCCCCCCC(=O)N[C@@H](CCCCN)CN1CC(=O)N(C23CC4CC(CC(C4)C2)C3)C1=O | > 50 µg/mL | > 50 µg/mL | > 50 µg/mL | > 50 µg/mL | > 50 µg/mL | > 50 µg/mL |  |  |  |  |  | 
CCCCCCCCCC(=O)N[C@@H](CCCCN)CN1CC(=O)N(C2CCCCC2)C1=O | 25 µg/mL (≈ 55.5 µM) | > 50 µg/mL | 25 µg/mL (≈ 55.5 µM) | 12.5 µg/mL (≈ 27.7 µM) | > 50 µg/mL | > 50 µg/mL |  | < 26 min |  |  |  | 
CCCCCCCCCCCCCC(=O)N[C@@H](CCCCN)CN1CC(=O)N(CC)C1=O | 6.25 µg/mL (≈ 13.8 µM) | 12.5 µg/mL (≈ 27.6 µM) | 6.25 µg/mL (≈ 13.8 µM) | 3.12 µg/mL (≈ 6.89 µM) | 6.25 µg/mL (≈ 13.8 µM) | 6.25 µg/mL (≈ 13.8 µM) | 14.4 |  |  |  |  | 
CCCCCCCCCCCCCC(=O)N[C@@H](CCCCN)CN1CC(=O)N(CCCC)C1=O | 6.25 µg/mL (≈ 13 µM) | > 50 µg/mL | 12.5 µg/mL (≈ 26 µM) | 6.25 µg/mL (≈ 13 µM) | 6.25 µg/mL (≈ 13 µM) | 6.25 µg/mL (≈ 13 µM) |  |  |  |  |  | 
CCCCCCCCCCCC(=O)N[C@@H](CCCCN)CN1CC(=O)N(c2ccc(OC)cc2)C1=O | 25 µg/mL (≈ 49.7 µM) | 12.5 µg/mL (≈ 24.9 µM) | 12.5 µg/mL (≈ 24.9 µM) | 12.5 µg/mL (≈ 24.9 µM) | 25 µg/mL (≈ 49.7 µM) | 25 µg/mL (≈ 49.7 µM) | 8 | < 26 min |  |  |  | 
CN[C@H](CC(C)C)C(=O)N[C@H]1C(=O)N[C@@H](CC(N)=O)C(=O)N[C@H]2C(=O)N[C@H]3C(=O)N[C@H](C(=O)N[C@H](C(=O)O)c4cc(O)cc(O)c4-c4cc3ccc4O)[C@H](O)c3ccc(c(Cl)c3)Oc3cc2cc(c3O[C@@H]2O[C@H](CO)[C@@H](O)[C@H](O)[C@H]2O[C@H]2C[C@](C)(N)[C@H](O)[C@H](C)O2)Oc2ccc(cc2Cl)[C@H]1O [VANCOMYCIN] |  |  |  |  |  |  |  |  | Active | 30% | Active | 45%
